Results from ChEMBL document CHEMBL2218064, “Structure-activity relationship data for chemical series of antagonists of the P2X7 receptor (Supplementary Bioactivity Data for publication CHEMBL1157114)”.

Each compound was assayed against T1, P2X purinoceptor 7 (Homo sapiens, UniProt Q99572) (assay: SUPPLEMENTARY: Inhibition of human P2X7 receptor assessed as inhibition of ethidium bromide accumulation. Same assay as CHEMBL1103860).
T1 sequence (Q99572 whole entry): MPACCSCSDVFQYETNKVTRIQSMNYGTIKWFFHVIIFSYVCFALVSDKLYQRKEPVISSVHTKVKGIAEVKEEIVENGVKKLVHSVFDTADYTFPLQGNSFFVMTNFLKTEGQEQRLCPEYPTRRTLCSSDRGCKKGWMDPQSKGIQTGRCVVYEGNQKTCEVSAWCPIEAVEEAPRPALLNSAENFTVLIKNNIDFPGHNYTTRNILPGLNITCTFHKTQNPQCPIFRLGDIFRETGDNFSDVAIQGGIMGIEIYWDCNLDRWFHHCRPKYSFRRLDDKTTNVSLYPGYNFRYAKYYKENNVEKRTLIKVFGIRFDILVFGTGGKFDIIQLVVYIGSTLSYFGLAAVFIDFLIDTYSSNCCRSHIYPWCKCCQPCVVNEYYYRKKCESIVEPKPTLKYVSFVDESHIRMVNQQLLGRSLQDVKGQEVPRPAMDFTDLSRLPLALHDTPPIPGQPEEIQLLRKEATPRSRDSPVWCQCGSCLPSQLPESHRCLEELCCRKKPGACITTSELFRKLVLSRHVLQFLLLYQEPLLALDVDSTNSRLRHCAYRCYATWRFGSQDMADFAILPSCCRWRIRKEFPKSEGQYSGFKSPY

| IC50 [nM] | SMILES |
| --- | --- |
| 10 | CC(C)c1ccccc1N1CCN(C(=O)c2cccc(Cl)c2Cl)CC1=O |
| 50.1 | Cc1cc(F)ccc1N1CCN(C(=O)c2cccc(Cl)c2Cl)CC1=O |
| 39.8 | Cc1cc(F)cc(C)c1N1CCN(Cc2ccc(F)cc2Cl)C(=O)C1=O |
| 12.6 | Cc1cc(F)cc(C)c1N1CCN(Cc2ccc(Cl)cc2Cl)C(=O)C1=O |
| 50.1 | Cc1cc(F)cc(C)c1N1CCN(Cc2cccc(C(F)(F)F)c2Cl)C(=O)C1=O |
| 50.1 | Cc1cc(F)cc(C)c1N1CCN(Cc2cccc(Cl)c2Cl)C(=O)C1=O |
| 316 | Cc1cc(F)cc(C)c1N1CCN(Cc2ccc(F)c(F)c2F)C(=O)C1=O |
| 15.8 | Cc1ccc(N2CCOCC2)cc1N1CCN(C(=O)c2cccc(C(F)(F)F)c2Cl)CC1=O |
| 12.6 | CN1C(=O)N(c2cncnc2)C[C@H]1C(=O)NCc1cccc(C(F)(F)F)c1Cl |
| 50.1 | CN1C(=O)N(c2cncnc2)C[C@H]1C(=O)NCc1ccc(Cl)cc1Cl |
| 251 | CN1C(=O)N(c2cncnc2)C[C@H]1C(=O)NCc1ccc(F)cc1Cl |
| 50.1 | CN1C(=O)N(CCCN2CCOCC2)CC1C(=O)NCc1cccc(C(F)(F)F)c1Cl (stereo not drawn) |
| 79.4 | Cc1cc(F)cc(C)c1N1CCN(Cc2ccc(F)cc2C(F)(F)F)C(=O)C1=O |
| 63.1 | CN(C)c1ccccc1N1CCN(Cc2ccc(F)cc2Cl)C(=O)C1=O |
| 6.31 | Cc1cccc(C)c1N1CCN(Cc2cccc(C(F)(F)F)c2Cl)C(=O)C1=O |
| 6.31 | Cc1cccc(C)c1N1CCN(Cc2cccc(Cl)c2Cl)C(=O)C1=O |
| 39.8 | Cc1cccc(C)c1N1CCN(Cc2ccc(F)c(F)c2F)C(=O)C1=O |
| 7.94 | Cc1cccc(C)c1N1CCN(Cc2ccc(F)cc2C(F)(F)F)C(=O)C1=O |
| 1.58 | Cc1cccc(C)c1N1CCN(Cc2ccc(Cl)cc2Cl)C(=O)C1=O |
| 12.6 | Cc1c(Cl)cccc1N1CCN(Cc2ccc(F)cc2Cl)C(=O)C1=O |
| 63.1 | O=C(c1cccc(C(F)(F)F)c1F)N1CCN(c2ccc(F)cc2Cl)C(=O)C1 |
| 79.4 | Cc1cc(Br)ccc1N1CCN(Cc2ccc(F)cc2Cl)C(=O)C1=O |
| 15.8 | CN1C(=O)N(c2nccc(C(F)(F)F)n2)C[C@H]1C(=O)NCc1cccc(C(F)(F)F)c1Cl |
| 31.6 | CN1C(=O)N(c2nccc(C(F)(F)F)n2)C[C@H]1C(=O)NCc1ccc(Cl)cc1Cl |
| 100 | CN1C(=O)N(c2nccc(C(F)(F)F)n2)C[C@H]1C(=O)NCc1ccc(F)cc1Cl |

| IC50 [nM] | SMILES |
| --- | --- |
| 50.1 | Cc1c(N2CCN(Cc3ccc(F)cc3Cl)C(=O)C2=O)cccc1-n1ccnc1 |
| 7.94 | CN1C(=O)N(c2ncccn2)C[C@H]1C(=O)NCc1ccc(F)c(F)c1Cl |
| 50.1 | O=C1C(=O)N(c2ccccc2N2CCCCC2)CCN1Cc1ccc(F)cc1Cl |
| 126 | O=C(c1cccc(Cl)c1Cl)N1CCN(c2ccc(Cl)cc2)C(=O)C1 |
| 7.94 | Cc1c(Cl)cccc1CNC(=O)[C@@H]1CN(c2ncccn2)C(=O)N1C |
| 100 | Cc1c(OCCN2CCOCC2)cccc1N1CCN(Cc2ccc(F)cc2Cl)C(=O)C1=O |
| 20 | CN1C(=O)NC[C@H]1C(=O)NCc1ccc(F)c(F)c1Cl |
| 31.6 | Cc1c(N2CCOCC2)cccc1N1CCN(Cc2ccc(F)cc2Cl)C(=O)C1=O |
| 50.1 | Cc1ccc(N2CCOCC2)c(N2CCN(Cc3ccc(F)cc3Cl)C(=O)C2=O)c1 |
| 5.01 | Cc1cccnc1N1C[C@@H](C(=O)NCc2cccc(C(F)(F)F)c2Cl)N(C)C1=O |
| 15.8 | Cc1cccnc1N1C[C@@H](C(=O)NCc2ccc(Cl)cc2Cl)N(C)C1=O |
| 25.1 | Cc1cccnc1N1C[C@@H](C(=O)NCc2ccc(F)c(F)c2Cl)N(C)C1=O |
| 39.8 | O=C1C(=O)N(c2ccccc2N2CCCC2)CCN1Cc1ccc(F)cc1Cl |
| 39.8 | O=C(c1ccc(F)cc1Cl)N1CCN(c2ccccc2Cl)C(=O)C1 |
| 25.1 | O=C(c1ccc(Cl)cc1Cl)N1CCN(c2ccccc2Cl)C(=O)C1 |
| 31.6 | O=C(c1cccc(Cl)c1Cl)N1CCN(c2ccc(F)cc2Cl)C(=O)C1 |
| 5.01 | O=C(c1cccc(C(F)(F)F)c1Cl)N1CCN(c2ccccc2Cl)C(=O)C1 |
| 31.6 | Cc1ncccc1N1C[C@@H](C(=O)NCc2ccc(F)c(F)c2Cl)N(C)C1=O |
| 39.8 | Cc1ncccc1N1C[C@@H](C(=O)NCc2cccc(Cl)c2Cl)N(C)C1=O |
| 63.1 | COc1c(Cl)cccc1N1CCN(Cc2ccc(F)cc2Cl)C(=O)C1=O |
| 12.6 | O=C1C(=O)N(c2cccc3[nH]ccc23)CCN1Cc1ccc(F)cc1Cl |
| 15.8 | O=C(c1cccc(C(F)(F)F)c1Cl)N1CCN(c2ccc(F)cc2Cl)C(=O)C1 |
| 31.6 | Cc1cc(N2C[C@@H](C(=O)NCc3ccc(F)c(F)c3Cl)N(C)C2=O)ccn1 |
| 200 | Cc1nc[nH]c1CN1C[C@@H](C(=O)NCc2ccc(F)c(F)c2Cl)N(C)C1=O |
| 25.1 | O=C(c1cccc(C(F)(F)F)c1Cl)N1CCN(c2ccc(F)cc2)C(=O)C1 |

| IC50 [nM] | SMILES |
| --- | --- |
| 200 | CN1CCN(C(=O)c2cccc(Cl)c2Cl)CC1=O |
| 31.6 | O=C1C(=O)N(c2cc(Cl)ccc2N2CCOCC2)CCN1Cc1ccc(F)cc1Cl |
| 50.1 | COc1c(Br)cccc1N1CCN(Cc2ccc(F)cc2Cl)C(=O)C1=O |
| 10 | CCc1ccccc1N1CCN(Cc2ccc(F)cc2Cl)C(=O)C1=O |
| 200 | CCN1CCN(C(=O)c2cccc(Cl)c2Cl)CC1=O |
| 158 | O=C1CN(C(=O)c2cccc(Cl)c2Cl)CCN1Cc1ccc(F)cc1Cl |
| 63.1 | CN1C(=O)N(CCN2CCOCC2)C[C@H]1C(=O)NCc1ccc(F)c(F)c1Cl |
| 126 | CC(C)N1CCN(C(=O)c2cccc(Cl)c2Cl)CC1=O |
| 7.94 | CC(C)c1ccccc1N1CCN(Cc2ccc(F)cc2Cl)C(=O)C1=O |
| 15.8 | O=C1C(=O)N(c2cc(F)ccc2N2CCOCC2)CCN1Cc1ccc(F)cc1Cl |
| 10 | O=C1C(=O)N(c2cc(Br)ccc2Cl)CCN1Cc1ccc(F)cc1Cl |
| 251 | O=C1C(=O)N(c2cccc3c2OCCO3)CCN1Cc1ccc(F)cc1Cl |
| 158 | O=C1C(=O)N(c2cc(F)ccc2F)CCN1Cc1ccc(F)cc1Cl |
| 20 | CC(C)(C)c1ccccc1N1CCN(Cc2ccc(F)cc2Cl)C(=O)C1=O |
| 100 | O=C1C(=O)N(c2ccccc2-n2cccc2)CCN1Cc1ccc(F)cc1Cl |
| 158 | Cc1cccc(N2CCN(Cc3ccc(F)cc3Cl)C(=O)C2=O)c1F |
| 31.6 | O=C1C(=O)N(c2ccccc2OC(F)(F)F)CCN1Cc1ccc(F)cc1Cl |
| 126 | O=C(c1cccc(Cl)c1Cl)N1CCN(c2ccc(F)cc2F)C(=O)C1 |
| 794 | O=C(c1ccc(Cl)cc1Cl)N1CCN(c2ccc(F)cc2F)C(=O)C1 |
| 79.4 | COc1ccc(Br)cc1N1CCN(Cc2ccc(F)cc2Cl)C(=O)C1=O |
| 63.1 | O=C(c1cccc(C(F)(F)F)c1Cl)N1CCN(c2ccc(F)cc2F)C(=O)C1 |
| 200 | O=C1C(=O)N(c2ccc(F)cc2Cl)CCN1Cc1ccc(F)cc1Cl |
| 501 | O=C1C(=O)N(c2cccc3ncccc23)CCN1Cc1ccc(F)cc1Cl |
| 158 | O=C1C(=O)N(c2cncc3ccccc23)CCN1Cc1ccc(F)cc1Cl |
| 3.16 | Cc1cccc(C)c1N1CCN(Cc2ccc(F)cc2Cl)C(=O)C1=O |

| IC50 [nM] | SMILES |
| --- | --- |
| 7.94 | O=C1C(=O)N(c2ccccc2I)CCN1Cc1ccc(F)cc1Cl |
| 158 | C[C@H]1CN(Cc2ccc(Cl)cc2Cl)C(=O)C(=O)N1c1ccccc1 |
| 251 | Cc1cc(F)ccc1N1CCN(Cc2ccc(F)cc2Cl)C(=O)C1=O |
| 15.8 | CN1C(=O)N(c2cn(C)cn2)C[C@H]1C(=O)NCc1ccc(F)c(F)c1Cl |
| 39.8 | CN1C(=O)N(c2nccn2C)C[C@H]1C(=O)NCc1ccc(F)c(F)c1Cl |
| 20 | CN1C(=O)N(c2ccnn2C)C[C@H]1C(=O)NCc1ccc(F)c(F)c1Cl |
| 63.1 | CN1C[C@@H](C(=O)NCc2cccc(C(F)(F)F)c2Cl)NC1=O |
| 794 | CN1C[C@@H](C(=O)NCc2ccc(F)cc2Cl)NC1=O |
| 25.1 | COc1cccc(N2CCN(Cc3ccc(F)cc3Cl)C(=O)C2=O)c1Cl |
| 251 | CN1CCOc2cccc(N3CCN(Cc4ccc(F)cc4Cl)C(=O)C3=O)c21 |
| 15.8 | O=C1C(=O)N(c2ccccc2C(F)(F)F)CCN1Cc1ccc(F)cc1Cl |
| 15.8 | O=C(c1cccc(Cl)c1Cl)N1CCN(c2cccc3ccccc23)C(=O)C1 |
| 50.1 | COc1ccc(N2CCOCC2)cc1N1CCN(Cc2ccc(F)cc2Cl)C(=O)C1=O |
| 12.6 | O=C(c1cccc(C(F)(F)F)c1Cl)N1CCN(c2cccc3ccccc23)C(=O)C1 |
| 126 | O=C1C(=O)N(c2ccccc2-c2ccccc2)CCN1Cc1ccc(F)cc1Cl |
| 50.1 | Cc1c(Br)cccc1N1CCN(Cc2ccc(F)cc2Cl)C(=O)C1=O |
| 200 | Cc1c(F)ccc(N2CCN(Cc3ccc(F)cc3Cl)C(=O)C2=O)c1C |
| 25.1 | CN1C(=O)N(CCN2CCOCC2)CC1C(=O)NCc1cccc(C(F)(F)F)c1Cl (stereo not drawn) |
| 7.94 | CC(C)c1ccccc1N1CCN(C(=O)c2cccc(C(F)(F)F)c2Cl)CC1=O |
| 79.4 | CN1C(=O)N(CCN2CCOCC2)CC1C(=O)NCc1ccc(Cl)cc1Cl (stereo not drawn) |
| 15.8 | Cc1ccc(N2CCOCC2)cc1N1CCN(C(=O)c2cccc(Cl)c2Cl)CC1=O |
| 251 | CN1C(=O)N(CCN2CCOCC2)CC1C(=O)NCc1ccc(F)cc1Cl (stereo not drawn) |
| 31.6 | CC(C)c1ccccc1N1CCN(C(=O)c2ccc(F)cc2Cl)CC1=O |
